Activity calls are given as the source filed them. The calls are words filed in the database; no cut-off is given here.
Columns and labels:
SH-SY5Y [1] = assay: Neuroprotective activity against NMDA-induced cell injury in human SH-SY5Y cells assessed as cell viability at 0.05 uM incubated for 6 hrs followed by NMDA treatment for 0.5 hrs and subsequent replacement of fresh medium without compounds by MTT assay relative to control; type: functional; details: time 6.5 hrs, read-out: Activity
SH-SY5Y [2] = assay: Neuroprotective activity against NMDA-induced cell injury in human SH-SY5Y cells assessed as cell viability at 0.5 uM incubated for 6 hrs followed by NMDA treatment for 0.5 hrs and subsequent replacement of fresh medium without compounds by MTT assay relative to control; type: functional; details: time 6.5 hrs, read-out: Activity
SH-SY5Y [3] = assay: Neuroprotective activity against NMDA-induced cell injury in human SH-SY5Y cells assessed as cell viability at 5 uM incubated for 6 hrs followed by NMDA treatment for 0.5 hrs and subsequent replacement of fresh medium without compounds by MTT assay relative to control; type: functional; details: time 6.5 hrs, read-out: Activity
[4] = Metabolic stability in human plasma assessed as compound remaining at 2 uM measured after 120 mins by LC-MS/MS analysis; type: ADME, cell-free; details: read-out: Stability
[5] = molecular target: Glutamate receptor ionotropic, NMDA 2B (Homo sapiens) (UniProt Q13224); assay: Antagonist activity against GluN2B NMDAR in human SH-SY5Y cells assessed as reduction in NMDA-induced intracellular influx at 5 uM incubated for 6 hrs followed by replacement of fresh medium without compounds and subsequent NMDA treatment by Fluo-4AM dye based calcium mobilization assay; type: cell-based; details: filed as antagonist
[6] = Metabolic stability in human plasma assessed as compound remaining at 2 uM measured after 60 mins by LC-MS/MS analysis; type: ADME, cell-free; details: read-out: Stability
[7] = Metabolic stability in human plasma assessed as compound remaining at 2 uM measured after 10 mins by LC-MS/MS analysis; type: ADME, cell-free; details: read-out: Stability
[8] = Metabolic stability in human plasma assessed as compound remaining at 2 uM measured immediately by LC-MS/MS analysis; type: ADME, cell-free; details: read-out: Stability
[9] = Metabolic stability in human plasma assessed as half life at 2 uM by LC-MS/MS analysis; type: ADME, cell-free
[10] = Metabolic stability in human plasma assessed as compound remaining at 2 uM measured after 30 mins by LC-MS/MS analysis; type: ADME, cell-free; details: read-out: Stability

Sequence of Glutamate receptor ionotropic, NMDA 2B (Homo sapiens) (Q13224 27-1484 limits assumed): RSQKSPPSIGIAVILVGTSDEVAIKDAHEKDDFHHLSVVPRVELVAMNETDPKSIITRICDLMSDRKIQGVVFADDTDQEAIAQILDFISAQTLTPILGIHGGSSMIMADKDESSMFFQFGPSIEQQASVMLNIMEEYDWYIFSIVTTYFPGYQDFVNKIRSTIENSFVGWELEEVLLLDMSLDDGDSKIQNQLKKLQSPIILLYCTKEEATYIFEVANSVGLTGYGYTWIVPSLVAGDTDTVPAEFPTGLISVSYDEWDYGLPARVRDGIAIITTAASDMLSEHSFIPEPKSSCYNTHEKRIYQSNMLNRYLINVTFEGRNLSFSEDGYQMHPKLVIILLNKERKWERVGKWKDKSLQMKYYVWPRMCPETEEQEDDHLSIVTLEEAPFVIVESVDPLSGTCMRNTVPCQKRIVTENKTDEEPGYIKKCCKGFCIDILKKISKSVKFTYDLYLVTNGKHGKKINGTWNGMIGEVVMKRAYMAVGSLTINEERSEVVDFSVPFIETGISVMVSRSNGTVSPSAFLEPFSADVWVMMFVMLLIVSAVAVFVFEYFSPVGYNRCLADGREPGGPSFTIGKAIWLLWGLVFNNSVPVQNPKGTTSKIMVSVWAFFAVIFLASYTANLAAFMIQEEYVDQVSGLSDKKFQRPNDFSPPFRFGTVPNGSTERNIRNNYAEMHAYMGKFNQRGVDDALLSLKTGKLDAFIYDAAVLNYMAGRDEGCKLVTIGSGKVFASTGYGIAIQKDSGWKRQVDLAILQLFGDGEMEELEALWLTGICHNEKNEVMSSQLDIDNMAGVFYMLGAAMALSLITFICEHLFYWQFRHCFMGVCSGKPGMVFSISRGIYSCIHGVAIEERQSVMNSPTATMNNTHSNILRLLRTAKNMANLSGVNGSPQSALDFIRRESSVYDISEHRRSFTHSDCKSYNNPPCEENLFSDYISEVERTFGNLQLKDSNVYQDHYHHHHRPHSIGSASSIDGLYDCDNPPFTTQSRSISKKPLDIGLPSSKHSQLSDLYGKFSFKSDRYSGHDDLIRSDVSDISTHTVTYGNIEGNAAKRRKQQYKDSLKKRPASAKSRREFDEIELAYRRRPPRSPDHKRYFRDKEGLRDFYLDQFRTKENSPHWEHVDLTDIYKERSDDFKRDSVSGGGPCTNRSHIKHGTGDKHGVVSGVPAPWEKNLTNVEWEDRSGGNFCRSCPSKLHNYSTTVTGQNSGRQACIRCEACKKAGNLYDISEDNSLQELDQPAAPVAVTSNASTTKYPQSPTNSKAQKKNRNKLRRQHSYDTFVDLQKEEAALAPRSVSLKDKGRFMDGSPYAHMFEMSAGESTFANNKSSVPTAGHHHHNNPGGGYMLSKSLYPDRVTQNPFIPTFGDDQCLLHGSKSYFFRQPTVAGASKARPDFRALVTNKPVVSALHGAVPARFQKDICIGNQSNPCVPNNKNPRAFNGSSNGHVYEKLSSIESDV

Which results are given for `O=C(/C=C/c1ccc(O)cc1)NCCc1cn(Cc2ccccc2Cl)c2ccccc12`?
viability at 0.05 µM (SH-SY5Y [1]): 13.6%; viability at 0.5 µM (SH-SY5Y [2]): 10.1%; viability at 5 µM (SH-SY5Y [3]): 5.9%

Which viability at 0.05 µM (SH-SY5Y [1]) does the source give for `O=C(/C=C/c1ccc(O)cc1)NCCc1cn(CCc2ccccc2)c2ccccc12` here?
Its viability at 0.05 µM is 25.9%.

And the viability at 0.5 µM (SH-SY5Y [2])?
The viability at 0.5 µM was 10.1%.

And the viability at 5 µM (SH-SY5Y [3])?
Its viability at 5 µM is 8%.

Which viability at 0.05 µM (SH-SY5Y [1]) does the source give for `O=C(/C=C/c1ccc(O)cc1)NCCc1cn(CCCc2ccccc2)c2ccccc12` here?
The viability at 0.05 µM was 20.1%.

And the viability at 0.5 µM (SH-SY5Y [2])?
The viability at 0.5 µM was 19.3%.

What about the viability at 5 µM (SH-SY5Y [3]) of the same molecule?
The viability at 5 µM was 12.5%.

Which viability at 0.05 µM (SH-SY5Y [1]) does the source give for `O=C(/C=C/c1ccc(O)cc1)NCCc1cn(Cc2ccc(Cl)cc2)c2ccccc12` here?
Its viability at 0.05 µM is 31.9%.

What about the viability at 0.5 µM (SH-SY5Y [2]) of the same molecule?
The viability at 0.5 µM was 22.5%.

And the viability at 5 µM (SH-SY5Y [3])?
Its viability at 5 µM is 21.7%.

Which results are given for `O=C(/C=C/c1ccc(O)cc1)NCCc1cn(Cc2ccccc2)c2ccccc12`?
viability at 0.05 µM (SH-SY5Y [1]): 33%; viability at 0.5 µM (SH-SY5Y [2]): 42.8%; viability at 5 µM (SH-SY5Y [3]): 52.8%

For `O=C(/C=C/c1ccc(O)cc1)NCCc1cn(Cc2cccc(F)c2)c2ccccc12`, which viability at 0.05 µM (SH-SY5Y [1]) is on record?
The viability at 0.05 µM was 28.6%.

What about the viability at 0.5 µM (SH-SY5Y [2]) of the same molecule?
The viability at 0.5 µM was 21.8%.

What about the viability at 5 µM (SH-SY5Y [3]) of the same molecule?
Its viability at 5 µM is 18.8%.

Which results are given for `Cc1ccc(Cn2cc(CCNC(=O)/C=C/c3ccc(O)cc3)c3ccccc32)cc1`?
viability at 0.05 µM (SH-SY5Y [1]): 19.4%; viability at 0.5 µM (SH-SY5Y [2]): 28.4%; viability at 5 µM (SH-SY5Y [3]): 21%

For `CC(C(O)c1ccc(O)cc1)N1CCC(Cc2ccccc2)CC1` (stereo unspecified) [IFENPRODIL], which viability at 0.05 µM (SH-SY5Y [1]) is on record?
Its viability at 0.05 µM is 29.4%.

What about the remaining at 2 h, 2 µM [4] of the same molecule?
Its remaining at 2 h, 2 µM is 91.3%.

What about the Activity [5] of the same molecule?
Its Activity is “Active”.

And the viability at 0.5 µM (SH-SY5Y [2])?
The viability at 0.5 µM was 40.4%.

What about the remaining at 1 h, 2 µM [6] of the same molecule?
Its remaining at 1 h, 2 µM is 93.5%.

And the viability at 5 µM (SH-SY5Y [3])?
Its viability at 5 µM is 41%.

And the remaining at 10 min, 2 µM [7]?
Its remaining at 10 min, 2 µM is 97%.

What about the remaining at 0 min, 2 µM [8] of the same molecule?
The remaining at 0 min, 2 µM was 100%.

What about the half-life at 2 µM [9] of the same molecule?
Its half-life at 2 µM is over 4.82 h.

What about the remaining at 0.5 h, 2 µM [10] of the same molecule?
The remaining at 0.5 h, 2 µM was 89.6%.

Which viability at 0.05 µM (SH-SY5Y [1]) does the source give for `O=C(/C=C/c1ccc(O)cc1)NCCc1cn(Cc2ccc(Br)cc2)c2ccccc12` here?
Its viability at 0.05 µM is 42.6%.

And the viability at 0.5 µM (SH-SY5Y [2])?
The viability at 0.5 µM was 36.1%.

And the viability at 5 µM (SH-SY5Y [3])?
The viability at 5 µM was 25.5%.

For `O=C(/C=C/c1ccc(O)cc1)NCCc1cn(Cc2cccc(Cl)c2)c2ccccc12`, which viability at 0.05 µM (SH-SY5Y [1]) is on record?
Its viability at 0.05 µM is 32.2%.

What about the viability at 0.5 µM (SH-SY5Y [2]) of the same molecule?
Its viability at 0.5 µM is 38.8%.

And the viability at 5 µM (SH-SY5Y [3])?
The viability at 5 µM was 25.2%.

Which viability at 0.05 µM (SH-SY5Y [1]) does the source give for `O=C(NCCc1cn(Cc2ccccc2)c2ccccc12)c1ccc(O)c(O)c1` here?
Its viability at 0.05 µM is 29.4%.

What about the viability at 0.5 µM (SH-SY5Y [2]) of the same molecule?
Its viability at 0.5 µM is 32.1%.

What about the viability at 5 µM (SH-SY5Y [3]) of the same molecule?
The viability at 5 µM was 44.9%.

Which results are given for `O=C(/C=C/c1ccc(O)cc1)NCCc1cn(Cc2ccc(F)cc2)c2ccccc12`?
viability at 0.05 µM (SH-SY5Y [1]): 35.8%; viability at 0.5 µM (SH-SY5Y [2]): 49.8%; viability at 5 µM (SH-SY5Y [3]): 20.8%

With `O=C(/C=C/c1ccc(O)c(O)c1)NCCc1cn(Cc2ccccc2)c2ccccc12` as the molecule, how does the viability at 0.05 µM (SH-SY5Y [1]) read?
The viability at 0.05 µM was 34.8%.

And the viability at 0.5 µM (SH-SY5Y [2])?
Its viability at 0.5 µM is 47.1%.

What about the viability at 5 µM (SH-SY5Y [3]) of the same molecule?
The viability at 5 µM was 48.2%.

— ChEMBL document CHEMBL5360573, “Discovery of novel tryptamine derivatives as GluN2B subunit-containing NMDA receptor antagonists via pharmacophore-merging strategy with orally available therapeutic effect of cerebral ischemia” (Eur J Med Chem, 2023)
